This is an account of results in US8168651B2, “Protein kinase modulators” (Cylene Pharmaceuticals, Inc., priority 2008, dated 2012).

The target in assay [1] is recombinant human PIM1 (Homo sapiens (Human), UniProt P11309). As to the kind of experiment: PIM-1 kinase activity in cell-free in vitro assay. Format: biochemical. The note with it: cell-free assay; for inhibition at 0.5 µM: 500 nM compound, read-out: PIM-1: % inh 500 nM.
Assay [2] relates to Jurkat. The assay is described as follows: Cell proliferation modulatory activity, Jurkat. Format: cell-based. To be noted: Homo sapiens.
For assay [3], the system named is HCT-116 human colorectal carcinoma cells. As to the kind of experiment: Cell-proliferation assay using Alamar Blue dye.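 Also: cells exposed to compound for about 4 days, then Alamar Blue added and dye fluorescence read after about 4 h, compared with medium-only control wells.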 It is filed as cell-based. To be noted: Homo sapiens. In general terms: Resazurin is reduced to fluorescent resorufin, in cell work by metabolically active cells.
In assay [4] the target is recombinant human CK2 (Homo sapiens (Human), UniProt P68400). As to the kind of experiment: CK2 assay (cell-free, 33P-ATP filter plate). To be noted: 15 um ATP, cell-free assay; read-out: CK2 (15 um ATP) IC50. It is filed as biochemical.
The mark [5] stands for this setting: HCT-116, HCT-116, second HCT-116 column (c8), read-out: HCT-116 (uM), cell proliferation modulatory activity.
Setting [6] is: HCT-116, read-out: HCT-116 (uM), cell proliferation modulatory activity, HCT-116, second HCT-116 column (c8).

SMILES strings stand for the structures. Read-outs that look alike come from different tables or passages of the source. Bounds are passed on as bounds.

Sequence of recombinant human PIM1 (P11309 whole entry): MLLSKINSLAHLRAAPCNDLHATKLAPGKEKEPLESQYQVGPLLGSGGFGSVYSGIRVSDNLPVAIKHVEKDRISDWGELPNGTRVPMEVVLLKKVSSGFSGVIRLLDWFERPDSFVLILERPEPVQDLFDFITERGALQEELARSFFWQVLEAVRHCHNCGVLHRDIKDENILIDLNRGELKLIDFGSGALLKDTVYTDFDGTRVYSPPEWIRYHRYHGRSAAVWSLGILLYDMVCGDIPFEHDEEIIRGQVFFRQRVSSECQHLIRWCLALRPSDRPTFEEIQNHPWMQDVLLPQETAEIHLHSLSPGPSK
Sequence of recombinant human CK2 (P68400 whole entry): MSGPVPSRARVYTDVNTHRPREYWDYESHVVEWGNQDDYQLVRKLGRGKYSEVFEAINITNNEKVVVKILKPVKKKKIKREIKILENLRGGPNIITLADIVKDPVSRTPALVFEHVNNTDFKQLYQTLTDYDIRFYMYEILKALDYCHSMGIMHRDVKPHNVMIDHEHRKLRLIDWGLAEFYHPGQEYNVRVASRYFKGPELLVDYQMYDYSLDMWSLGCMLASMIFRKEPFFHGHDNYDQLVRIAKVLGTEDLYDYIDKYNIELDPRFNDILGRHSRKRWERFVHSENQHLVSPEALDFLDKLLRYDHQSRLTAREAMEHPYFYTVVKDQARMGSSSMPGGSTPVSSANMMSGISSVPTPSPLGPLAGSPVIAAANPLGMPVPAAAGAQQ
Sequence of recombinant human CK2 (P67870 whole entry partner): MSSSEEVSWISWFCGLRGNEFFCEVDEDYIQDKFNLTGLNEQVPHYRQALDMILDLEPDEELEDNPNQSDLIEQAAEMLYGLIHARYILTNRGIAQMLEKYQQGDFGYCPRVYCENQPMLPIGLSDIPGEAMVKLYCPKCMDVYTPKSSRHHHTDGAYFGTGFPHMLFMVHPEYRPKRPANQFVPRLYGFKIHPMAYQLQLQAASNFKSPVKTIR

Take `O=C(NCc1ccccn1)c1ccc2c(c1)nc(NC1CC1)c1nc(NC3CC3)ncc12`: in assay [1], the inhibition at 0.5 µM was -17.1%. Further, the IC50 was 1.95 µM in assay [2], 3.07 µM in assay [3] (setting [5]) and above 0.75 µM in assay [4].
In the same order, the values of `O=C(O)c1ccc2c(c1)nc(NC1CC1)c1nc(NCC3CC3)ncc12` are 15.7%, 4.41 µM, above 10 µM and 0.008 µM.
Taken in the same sequence, the figures for `O=C(O)c1ccc2c(c1)nc(NC1CC1)c1nc(NCCCO)ncc12` were -15.9%, above 50 µM, above 10 µM and 0.164 µM.
Taken in the same sequence, the figures for `O=C(O)c1ccc2c(c1)nc(NC1CC1)c1nc(Nc3cccc(F)c3F)ncc12` were 71.7%, 2.38 µM, above 10 µM and 0.017 µM.
`CCOCCCNc1ncc2c(n1)c(NC1CC1)nc1cc(C(=O)O)ccc12`: the inhibition at 0.5 µM in assay [1] worked out at 9.55%. Besides, the results for the IC50 in assay [2], in assay [3] (setting [5]) and in assay [4] were 2.02 µM, 3.64 µM and 0.045 µM, respectively.
Regarding `CN(C)C(=O)c1ccc2c(c1)nc(NC1CC1)c1nc(NC3CC3)ncc12`, the inhibition at 0.5 µM in assay [1] turned out to be 1.62%. Also, the IC50 in assay [2] is 0.583 µM; in assay [3] (setting [5]), 1.12 µM; in assay [4] it was above 0.75 µM.
As to `NCCNC(=O)c1ccc2c(c1)nc(NC1CC1)c1nc(NC3CC3)ncc12`, in assay [1], the inhibition at 0.5 µM stood at 3.79%. In addition, the results for the IC50 in assay [2], in assay [3] (setting [5]) and in assay [4] were 2.36 µM, above 10 µM and above 0.75 µM, respectively.
Taken in the same sequence, the figures for `CNC(=O)c1ccc2c(c1)nc(NC1CC1)c1nc(NC3CC3)ncc12` were -16.2%, 0.618 µM, 1.08 µM and above 0.75 µM.
Taken in the same sequence, the figures for `O=C(NCCN1CCOCC1)c1ccc2c(c1)nc(NC1CC1)c1nc(NC3CC3)ncc12` were 2.65%, 1.43 µM, above 10 µM and above 0.75 µM.
Taken in the same sequence, the figures for `COCCNc1ncc2c(n1)c(NC1CC1)nc1cc(C(=O)O)ccc12` were 17.2%, 13.7 µM, above 10 µM and 0.013 µM.
In the case of `CNc1ncc2c(n1)c(NC1CC1)nc1cc(C(=O)O)ccc12`, the inhibition at 0.5 µM in assay [1] was determined as 52.4%. In addition, the IC50 in assay [1] is 0.535 µM; in assay [2], 9.68 µM; in assay [3] (setting [6]), above 10 µM.
As for `CCCNc1ncc2c(n1)c(NC1CC1)nc1cc(C(=O)O)ccc12` [drawing 1645], the inhibition at 0.5 µM in assay [1] came to 13.2%. Further, the IC50 in assay [2] is 9.37 µM; in assay [3] (setting [6]), above 10 µM.
In the case of `COc1ccc(Nc2ncc3c(n2)c(NC2CC2)nc2cc(C(=O)O)ccc23)cc1Cl`, the inhibition at 0.5 µM in assay [1] came to 38.7%. The IC50 in assay [2] came to 9.17 µM; in assay [3] (setting [5]), 2.31 µM.
`O=C(O)c1ccc2c(c1)nc(NC1CC1)c1nc(NCc3ccccc3)ncc12` [drawing 1617]: the inhibition at 0.5 µM in assay [1] came to 34.5%. Also, the IC50 was 8.82 µM in assay [2] and above 10 µM in assay [3] (setting [6]).
In the same order, the values of `O=C(O)c1ccc2c(c1)nc(NC1CC1)c1nc(Nc3cccc(C(F)(F)F)c3)ncc12` are 44.2%, 2.39 µM and above 10 µM.
On to `O=C(O)c1ccc2c(c1)nc(N1CCOCC1)c1nc(NC3CC3)ncc12` [drawing 1627], for which the inhibition at 0.5 µM in assay [1] is 26%. Also, the IC50 in assay [2] was 3.67 µM; in assay [3] (setting [5]) it was above 10 µM.
Taken in the same sequence, the figures for `CN(C)CCNc1nc2cc(C(=O)O)ccc2c2cnc(NC3CC3)nc12` [drawing 1642] were -37.5%, 34 µM and above 10 µM.
In the same order, the values of `Nc1nc2cc(C(=O)O)ccc2c2cnc(NC3CC3)nc12` are 0.938%, 55.2 µM and above 10 µM.
With `O=C(O)c1ccc2c(c1)nc(NC1CC1)c1nc(NCc3cccnc3)ncc12`, the IC50 was above 50 µM in assay [2], above 10 µM in assay [3] (setting [5]) and 0.023 µM in assay [4].
In the case of `COC(=O)c1ccc2c(c1)nc(NC1CC1)c1nc(SCc3ccccc3Cl)ncc12` [drawing 1611], the inhibition at 0.5 µM in assay [1] was -0.924%. Besides, the IC50 was 4.67 µM in assay [2] and above 10 µM in assay [3] (setting [5]).
For the compound `O=C(O)c1ccc2c(c1)nc(NC1CC1)c1nc(NCc3ccncc3)ncc12`, in assay [1], the inhibition at 0.5 µM worked out at 8.18%. The IC50 in assay [2] is 35.6 µM; in assay [3] (setting [6]) it was above 10 µM.
As to `COC(=O)c1ccc2c(c1)nc(Nc1ccccc1C)c1nc(S(C)(=O)=O)ncc12`, the inhibition at 0.5 µM in assay [1] amounted to 25.3%. The IC50 is above 30 µM in assay [2] and above 10 µM in assay [3] (setting [5]).
Turning to `O=C(O)c1ccc2c(c1)nc(NC1CC1)c1nc(NCc3ccccn3)ncc12`, in assay [1], the inhibition at 0.5 µM was 11.2%. The IC50 in assay [2] is 23.3 µM; in assay [3] (setting [6]), above 10 µM.
As to `COC(=O)c1ccc2c(c1)nc(NC1CC1)c1nc(SC)ncc12` [drawing 1641], in assay [1], the inhibition at 0.5 µM turned out to be 17.1%. In addition, the IC50 in assay [2] is above 50 µM; in assay [3] (setting [5]), above 10 µM.
`CC(C)Nc1ncc2c(n1)c(NC1CC1)nc1cc(C(=O)O)ccc12`: in assay [1], the inhibition at 0.5 µM turned out to be 73.3%. Further, the values for the IC50 in assay [1], in assay [2] and in assay [3] (setting [6]) were above 1.1 µM, 2.14 µM and above 10 µM, respectively.
For `O=C(O)c1ccc2c(c1)nc(NC1CC1)c1nc(Nc3ccc(F)cc3)ncc12`, in assay [1], the inhibition at 0.5 µM was determined as 49.3%. The results for the IC50 in assay [1], in assay [2] and in assay [3] (setting [5]) were 1.07 µM, 5.02 µM and above 10 µM, respectively.
For `O=C(O)c1ccc2c(c1)nc(NC1CC1)c1nc(NC(CO)c3ccccc3)ncc12` (stereo not drawn), the inhibition at 0.5 µM in assay [1] is -22.8%. The IC50 is 27.5 µM in assay [2] and above 10 µM in assay [3] (setting [5]).
Turning to `CNc1ncc2c(n1)c(Nc1cccc(Cl)c1)nc1cc(C(=O)O)ccc12`, in assay [1], the inhibition at 0.5 µM worked out at 51.5%. Moreover, the IC50 was 1.09 µM in assay [2] and above 10 µM in assay [3] (setting [6]).
In the case of `O=C(O)c1ccc2c(c1)nc(NC1CC1)c1nc(NC3CCNCC3)ncc12`, the inhibition at 0.5 µM in assay [1] was found to be 18.9%. Moreover, the IC50 was above 50 µM in assay [2] and above 10 µM in assay [3] (setting [5]).
For the compound `O=C(O)c1ccc2c(c1)nc(NC1CC1)c1nc(Nc3cc(F)ccc3F)ncc12`, in assay [1], the inhibition at 0.5 µM came out at 50.4%. Further, the figures for the IC50 in assay [1], in assay [2] and in assay [3] (setting [5]) were above 1.1 µM, 15.7 µM and above 10 µM, respectively.
For the compound `C#Cc1cccc(Nc2nc3cc(C(=O)N4CCCC4)ccc3c3cncnc23)c1`, the inhibition at 0.5 µM in assay [1] is -7.6%. Also, the IC50 is 13.3 µM in assay [2] and above 10 µM in assay [3] (setting [5]).
Taken in the same sequence, the figures for `C#Cc1cccc(Nc2nc3cc(C(=O)N4CCCN(C)CC4)ccc3c3cncnc23)c1` were -11.2%, 3.22 µM and above 10 µM.
`O=C(O)c1ccc2c(c1)nc(Nc1cccc(OC(F)(F)F)c1)c1ccncc12`: the inhibition at 0.5 µM in assay [1] is 87.3%. The results for the IC50 in assay [1], in assay [2] and in assay [3] (setting [5]) were 0.711 µM, 7.44 µM and above 10 µM, respectively.
On to `C#Cc1cccc(Nc2nc3cc(C(N)=O)ccc3c3cncnc23)c1`, for which the inhibition at 0.5 µM in assay [1] is -38.1%. Besides, the IC50 in assay [2] is 31.5 µM; in assay [3] (setting [5]), above 10 µM.
